Source: ChEMBL document CHEMBL4229526, “Quinoxaline derivatives as potential antitrypanosomal and antileishmanial agents” (Bioorg Med Chem, 2018)
pIC50: −log10 of the molar value.

How the values were obtained:
[1] = system: THP-1; assay: Cytotoxicity against human THP1 cells infected with Leishmania donovani MHOM/SD/62/1S-CL2D LdBOB amastigotes harboring eGFP assessed as reduction in cell number after 96 hrs by DAPI staining based microscopic analysis; settings: THP-1, 96 h
[2] = system: Trypanosoma cruzi; assay: Antitrypanosomal activity against Trypanosoma cruzi Tulahuen amastigote forms infected in rat H9c2 cells assessed as reduction in amastigote number per cell after 72 hrs by DRAQ5 DNA dye based confocal microscopic analysis; assay type: functional, organism-based; settings: H9c2, 72 h
[3] = system: H9c2; assay: Cytotoxicity against rat H9c2 cells infected with Trypanosoma cruzi Tulahuen amastigote forms assessed as reduction in cell number after 72 hrs by DRAQ5 DNA dye based confocal microscopic analysis; settings: H9c2, 72 h
[4] = system: Leishmania donovani; assay: Antileishmanial activity against Leishmania donovani MHOM/SD/62/1S-CL2D LdBOB axenic amastigotes harboring eGFP after 72 hrs by resazurin dye based fluorescence assay; assay type: functional, organism-based
[5] = system: Leishmania donovani; assay: Antileishmanial activity against Leishmania donovani MHOM/SD/62/1S-CL2D LdBOB amastigotes harboring eGFP infected in human THP1 cells assessed as reduction in infected cells after 96 hrs by DAPI staining based microscopic analysis; assay type: functional, organism-based; settings: THP-1, 96 h
[6] = system: Leishmania donovani; assay: Antileishmanial activity against Leishmania donovani MHOM/SD/62/1S-CL2D LdBOB amastigotes harboring eGFP infected in human THP1 cells assessed as reduction in number of amastigotes per cell after 96 hrs by DAPI staining based microscopic analysis; assay type: functional, organism-based; settings: THP-1, 96 h
[7] = system: Trypanosoma brucei; assay: Antitrypanosomal activity against Trypanosoma brucei Lister 427 bloodstream forms after 48 hrs by resazurin dye based fluorescence assay; assay type: functional, organism-based; settings: Lister 427, 48 h
[8] = system: Trypanosoma cruzi; assay: Antitrypanosomal activity against Trypanosoma cruzi Tulahuen amastigote forms infected in rat H9c2 cells assessed as reduction in infected cells after 72 hrs by DRAQ5 DNA dye based confocal microscopic analysis; assay type: functional, organism-based; settings: H9c2, 72 h
[9] = system: Trypanosoma cruzi; assay: Antitrypanosomal activity against Trypanosoma cruzi Tulahuen trypomastigote forms infected in monkey LLC-MK2 cells after 24 hrs by CellTiter-Glo luminescent cell viability assay; assay type: functional, organism-based; settings: LLC-MK2, 24 h
[10] = Cytotoxicity against human HepG2 cells after 48 hrs by CellTiter-Glo cell viability assay; assay type: cell-based

Compound | pIC50 [1] | pIC50 [2] | pIC50 [3] | pIC50 [4] | pIC50 [5] | pIC50 [6] | pIC50 [7] | pIC50 [8] | pIC50 [9] | CC50 at 48 h [10] [µM]
CCCCNc1nc2ccc(OC)cc2nc1S(C)(=O)=O | 4.90 | 4.70 | 4.80 | 4.90 | 4.50 | 4.60 | 4.60 | 4.70 | 5.05 | 19.9
COc1ccc2nc(NCCO)c(S(C)(=O)=O)nc2c1 | 4.50 | 4.50 | 4.50 | 4.60 | < 4.30 | 4.60 | 4.40 | 4.40 | 4.63 | 39.8
CCCCNc1nc2ccccc2nc1S(C)(=O)=O | 4.90 | 4.80 | 5.00 | 5.00 | 4.60 | 4.70 | 4.60 | 4.80 | 5.06 | 12.6
COc1ccc2nc(NC3CCCCC3)c(S(C)(=O)=O)nc2c1 | 5.00 | 4.90 | 5.20 | 5.00 | 5.10 | 5.20 | 4.80 | 4.80 | 5.44 | 12.6
CCCCNc1nc2cc(OC)ccc2nc1S(C)(=O)=O | < 4.30 | 4.60 | 4.50 | < 4.30 | < 4.30 | < 4.30 | 4.60 | 4.40 | 4.38 | > 100
COc1ccc2nc(S(C)(=O)=O)c(NCCO)nc2c1 | < 4.30 | < 4.30 | < 4.30 | < 4.30 | < 4.30 | < 4.30 | 4.40 | < 4.30 | 6.11 | > 100
COc1ccc2nc(S(C)(=O)=O)c(NC3CCCCC3)nc2c1 | 4.50 | 4.80 | 4.70 | < 4.30 | < 4.30 | < 4.30 | 4.60 | 4.70 | 4.37 | 79.4
COc1ccc2nc(S(C)(=O)=O)c(NCC(C)C)nc2c1 | < 4.30 | 4.50 | 4.50 | < 4.30 | < 4.30 | < 4.30 | 4.50 | 4.50 | 4.36 | 79.4
COc1ccc2nc(S(C)(=O)=O)c(NCCC(C)C)nc2c1 | 4.40 | 4.80 | 4.50 | < 4.30 | < 4.30 | < 4.30 | 4.60 | 4.70 | < 4.30 | 50.1
CCCCNc1nc2cc(Br)ccc2nc1S(C)(=O)=O | 5.10 | 5.30 | 5.30 | 5.30 | 5.00 | 5.20 | 5.20 | 5.10 | 6.01 | 7.94
COc1ccc2nc(NCC(C)C)c(S(C)(=O)=O)nc2c1 | 5.10 | 4.80 | 5.00 | 4.90 | 4.70 | 4.90 | 4.60 | 4.70 | 5.26 | 12.6
CCCCNc1nc2cc(Cl)ccc2nc1S(C)(=O)=O | 5.30 | 5.10 | 5.30 | 5.50 | 5.10 | 5.10 | 5.20 | 5.00 | 6.02 | 6.31
CS(=O)(=O)c1nc2ccc(Cl)cc2nc1NC1CCCCC1 | 5.20 | 5.30 | 5.40 | 5.40 | 5.00 | 4.90 | 5.60 | 5.10 | 6.40 | 5.01
COc1ccc2nc(NC3CCCCC3)c([S+](C)[O-])nc2c1 (stereo unspecified) | 5.00 | 5.00 | 5.30 | 5.10 | 5.10 | 5.20 | 4.70 | 4.90 | 5.11 | 12.6
C[S+]([O-])c1nc2ccc(Cl)cc2nc1NC1CCCCC1 (stereo unspecified) | 4.50 | 5.40 | 5.50 | 5.00 | 4.50 | 4.50 | 5.20 | 5.30 | 6.13 | 15.8
COc1ccc2nc(-c3ccc(-c4ccccc4)cc3)c(-c3ccc(S(C)(=O)=O)cc3)nc2c1 | 4.40 | 4.50 | 4.60 | < 4.30 | < 4.30 | < 4.30 | 4.50 | 4.70 | 4.37 | > 100
C[C@@H]1[C@H](O)[C@@H](C)/C=C/C=C/C=C/C=C/C=C/C=C/C=C/[C@H](O[C@@H]2O[C@H](C)[C@@H](O)[C@H](N)[C@@H]2O)C[C@@H]2O[C@](O)(C[C@@H](O)C[C@@H](O)[C@H](O)CC[C@@H](O)C[C@@H](O)CC(=O)O[C@H]1C)C[C@H](O)[C@H]2C(=O)O [AMPHOTERICIN B] | 5.00 | – | – | 5.80 | 6.20 | 6.20 | – | – | – | –
O=C(Cn1ccnc1[N+](=O)[O-])NCc1ccccc1 [BENZNIDAZOLE] | – | 5.90 | < 4.30 | – | – | – | 5.49 | 5.28 | 4.64 | –
NCCC[C@](N)(C(=O)O)C(F)F [EFLORNITHINE, (S)-] | – | – | – | – | – | – | 4.49 | – | – | –
CCCCCCCCCCCCCCCCOP(=O)([O-])OCC[N+](C)(C)C [MILTEFOSINE] | 4.80 | – | – | 5.10 | 5.30 | 5.40 | – | – | – | –
CC1CS(=O)(=O)CCN1/N=C/c1ccc([N+](=O)[O-])o1 (stereo unspecified) [NIFURTIMOX] | – | 6.40 | < 4.30 | – | – | – | 5.12 | 5.23 | 5.53 | –
N=C(N)c1ccc(OCCCCCOc2ccc(C(=N)N)cc2)cc1 [PENTAMIDINE] | – | – | – | – | – | – | 8.00 | – | – | –
Cc1ccc(C(=O)Nc2ccc(S(=O)(=O)O)c3cc(S(=O)(=O)O)cc(S(=O)(=O)O)c23)cc1NC(=O)c1cccc(NC(=O)Nc2cccc(C(=O)Nc3cc(C(=O)Nc4ccc(S(=O)(=O)O)c5cc(S(=O)(=O)O)cc(S(=O)(=O)O)c45)ccc3C)c2)c1 [SURAMIN] | – | – | – | – | – | – | 6.74 | – | – | –
